In BigSolDB 2.1:

Which solubility (mole fraction) (in 1,4-dioxane, 288.15 K) does the source give for `COc1cc([N+](=O)[O-])ccc1N` here?
Its solubility (mole fraction) is 0.0402.

And the solubility (mole fraction) (in 1,4-dioxane, 293.15 K)?
The solubility (mole fraction) was 0.0468.

What about the solubility (mole fraction) (in 1,4-dioxane, 298.15 K) of the same compound?
Its solubility (mole fraction) is 0.0556.

And the solubility (mole fraction) (in 1,4-dioxane, 303.15 K)?
Its solubility (mole fraction) is 0.0652.

And the solubility (mole fraction) (in 1,4-dioxane, 308.15 K)?
Its solubility (mole fraction) is 0.0775.

And the solubility (mole fraction) (in 1,4-dioxane, 313.15 K)?
Its solubility (mole fraction) is 0.0925.

What about the solubility (mole fraction) (in 1,4-dioxane, 318.15 K) of the same compound?
The solubility (mole fraction) was 0.111.

And the solubility (mole fraction) (in 1,4-dioxane, 323.15 K)?
Its solubility (mole fraction) is 0.133.

What about the solubility (mole fraction) (in DMSO, 293.15 K) of the same compound?
Its solubility (mole fraction) is 0.235.

What about the solubility (mole fraction) (in DMSO, 298.15 K) of the same compound?
The solubility (mole fraction) was 0.249.

What about the solubility (mole fraction) (in DMSO, 303.15 K) of the same compound?
Its solubility (mole fraction) is 0.264.

And the solubility (mole fraction) (in DMSO, 308.15 K)?
Its solubility (mole fraction) is 0.281.

What about the solubility (mole fraction) (in DMSO, 313.15 K) of the same compound?
Its solubility (mole fraction) is 0.3.

What about the solubility (mole fraction) (in DMSO, 318.15 K) of the same compound?
Its solubility (mole fraction) is 0.321.

What about the solubility (mole fraction) (in DMSO, 323.15 K) of the same compound?
Its solubility (mole fraction) is 0.344.

What about the solubility (mole fraction) (in NMP, 278.15 K) of the same compound?
The solubility (mole fraction) was 0.256.

What about the solubility (mole fraction) (in NMP, 283.15 K) of the same compound?
The solubility (mole fraction) was 0.272.

And the solubility (mole fraction) (in NMP, 288.15 K)?
Its solubility (mole fraction) is 0.287.

What about the solubility (mole fraction) (in NMP, 293.15 K) of the same compound?
The solubility (mole fraction) was 0.303.

What about the solubility (mole fraction) (in NMP, 298.15 K) of the same compound?
Its solubility (mole fraction) is 0.321.

What about the solubility (mole fraction) (in NMP, 303.15 K) of the same compound?
Its solubility (mole fraction) is 0.339.

What about the solubility (mole fraction) (in NMP, 308.15 K) of the same compound?
Its solubility (mole fraction) is 0.359.

And the solubility (mole fraction) (in NMP, 313.15 K)?
The solubility (mole fraction) was 0.38.

And the solubility (mole fraction) (in NMP, 318.15 K)?
Its solubility (mole fraction) is 0.402.

What about the solubility (mole fraction) (in NMP, 323.15 K) of the same compound?
The solubility (mole fraction) was 0.426.

And the solubility (mole fraction) (in acetonitrile, 278.15 K)?
The solubility (mole fraction) was 0.0118.

And the solubility (mole fraction) (in acetonitrile, 283.15 K)?
The solubility (mole fraction) was 0.0141.

What about the solubility (mole fraction) (in acetonitrile, 288.15 K) of the same compound?
The solubility (mole fraction) was 0.0175.

And the solubility (mole fraction) (in acetonitrile, 293.15 K)?
Its solubility (mole fraction) is 0.0213.

And the solubility (mole fraction) (in acetonitrile, 298.15 K)?
The solubility (mole fraction) was 0.0269.

And the solubility (mole fraction) (in acetonitrile, 303.15 K)?
The solubility (mole fraction) was 0.0345.

And the solubility (mole fraction) (in acetonitrile, 308.15 K)?
The solubility (mole fraction) was 0.0433.

What about the solubility (mole fraction) (in acetonitrile, 313.15 K) of the same compound?
The solubility (mole fraction) was 0.0547.

And the solubility (mole fraction) (in acetonitrile, 318.15 K)?
The solubility (mole fraction) was 0.0683.

And the solubility (mole fraction) (in acetonitrile, 323.15 K)?
The solubility (mole fraction) was 0.0872.

What about the solubility (mole fraction) (in ethanol, 278.15 K) of the same compound?
Its solubility (mole fraction) is 0.00263.

What about the solubility (mole fraction) (in ethanol, 283.15 K) of the same compound?
The solubility (mole fraction) was 0.00307.

And the solubility (mole fraction) (in ethanol, 288.15 K)?
Its solubility (mole fraction) is 0.00363.

And the solubility (mole fraction) (in ethanol, 293.15 K)?
The solubility (mole fraction) was 0.00438.

What about the solubility (mole fraction) (in ethanol, 298.15 K) of the same compound?
The solubility (mole fraction) was 0.00534.

And the solubility (mole fraction) (in ethanol, 303.15 K)?
The solubility (mole fraction) was 0.00636.

And the solubility (mole fraction) (in ethanol, 308.15 K)?
The solubility (mole fraction) was 0.0078.

What about the solubility (mole fraction) (in ethanol, 313.15 K) of the same compound?
Its solubility (mole fraction) is 0.00978.

What about the solubility (mole fraction) (in ethanol, 318.15 K) of the same compound?
Its solubility (mole fraction) is 0.0121.

What about the solubility (mole fraction) (in ethanol, 323.15 K) of the same compound?
Its solubility (mole fraction) is 0.015.

What about the solubility (mole fraction) (in ethyl acetate, 278.15 K) of the same compound?
Its solubility (mole fraction) is 0.0186.

What about the solubility (mole fraction) (in ethyl acetate, 283.15 K) of the same compound?
The solubility (mole fraction) was 0.0227.

What about the solubility (mole fraction) (in ethyl acetate, 288.15 K) of the same compound?
Its solubility (mole fraction) is 0.0269.

What about the solubility (mole fraction) (in ethyl acetate, 293.15 K) of the same compound?
Its solubility (mole fraction) is 0.0326.

What about the solubility (mole fraction) (in ethyl acetate, 298.15 K) of the same compound?
The solubility (mole fraction) was 0.0398.

What about the solubility (mole fraction) (in ethyl acetate, 303.15 K) of the same compound?
Its solubility (mole fraction) is 0.0486.

And the solubility (mole fraction) (in ethyl acetate, 308.15 K)?
The solubility (mole fraction) was 0.0596.

And the solubility (mole fraction) (in ethyl acetate, 313.15 K)?
Its solubility (mole fraction) is 0.0716.

And the solubility (mole fraction) (in ethyl acetate, 318.15 K)?
Its solubility (mole fraction) is 0.0854.

And the solubility (mole fraction) (in ethyl acetate, 323.15 K)?
The solubility (mole fraction) was 0.103.

And the solubility (mole fraction) (in ethylene glycol, 278.15 K)?
Its solubility (mole fraction) is 0.0017.

What about the solubility (mole fraction) (in ethylene glycol, 283.15 K) of the same compound?
Its solubility (mole fraction) is 0.00201.

And the solubility (mole fraction) (in ethylene glycol, 288.15 K)?
Its solubility (mole fraction) is 0.00243.

What about the solubility (mole fraction) (in ethylene glycol, 293.15 K) of the same compound?
Its solubility (mole fraction) is 0.00284.

And the solubility (mole fraction) (in ethylene glycol, 298.15 K)?
Its solubility (mole fraction) is 0.00345.

And the solubility (mole fraction) (in ethylene glycol, 303.15 K)?
The solubility (mole fraction) was 0.00424.

And the solubility (mole fraction) (in ethylene glycol, 308.15 K)?
The solubility (mole fraction) was 0.00527.

And the solubility (mole fraction) (in ethylene glycol, 313.15 K)?
Its solubility (mole fraction) is 0.00643.

And the solubility (mole fraction) (in ethylene glycol, 318.15 K)?
The solubility (mole fraction) was 0.00796.

What about the solubility (mole fraction) (in ethylene glycol, 323.15 K) of the same compound?
The solubility (mole fraction) was 0.00973.

And the solubility (mole fraction) (in methanol, 278.15 K)?
The solubility (mole fraction) was 0.00238.

What about the solubility (mole fraction) (in methanol, 283.15 K) of the same compound?
The solubility (mole fraction) was 0.0028.

What about the solubility (mole fraction) (in methanol, 288.15 K) of the same compound?
The solubility (mole fraction) was 0.00333.

And the solubility (mole fraction) (in methanol, 293.15 K)?
Its solubility (mole fraction) is 0.00392.

What about the solubility (mole fraction) (in methanol, 298.15 K) of the same compound?
Its solubility (mole fraction) is 0.00466.

What about the solubility (mole fraction) (in methanol, 303.15 K) of the same compound?
Its solubility (mole fraction) is 0.00565.

And the solubility (mole fraction) (in methanol, 308.15 K)?
The solubility (mole fraction) was 0.00682.

And the solubility (mole fraction) (in methanol, 313.15 K)?
Its solubility (mole fraction) is 0.00844.

And the solubility (mole fraction) (in methanol, 318.15 K)?
The solubility (mole fraction) was 0.0104.

What about the solubility (mole fraction) (in methanol, 323.15 K) of the same compound?
Its solubility (mole fraction) is 0.0129.

What about the solubility (mole fraction) (in n-butanol, 278.15 K) of the same compound?
The solubility (mole fraction) was 0.00135.

And the solubility (mole fraction) (in n-butanol, 283.15 K)?
Its solubility (mole fraction) is 0.00166.

What about the solubility (mole fraction) (in n-butanol, 288.15 K) of the same compound?
The solubility (mole fraction) was 0.00202.

And the solubility (mole fraction) (in n-butanol, 293.15 K)?
Its solubility (mole fraction) is 0.00248.

What about the solubility (mole fraction) (in n-butanol, 298.15 K) of the same compound?
Its solubility (mole fraction) is 0.00304.

And the solubility (mole fraction) (in n-butanol, 303.15 K)?
The solubility (mole fraction) was 0.00371.

And the solubility (mole fraction) (in n-butanol, 308.15 K)?
The solubility (mole fraction) was 0.00457.

What about the solubility (mole fraction) (in n-butanol, 313.15 K) of the same compound?
Its solubility (mole fraction) is 0.0057.

And the solubility (mole fraction) (in n-butanol, 318.15 K)?
Its solubility (mole fraction) is 0.0072.

What about the solubility (mole fraction) (in n-butanol, 323.15 K) of the same compound?
Its solubility (mole fraction) is 0.00886.

And the solubility (mole fraction) (in n-propanol, 278.15 K)?
The solubility (mole fraction) was 0.00199.

What about the solubility (mole fraction) (in n-propanol, 283.15 K) of the same compound?
The solubility (mole fraction) was 0.00239.

And the solubility (mole fraction) (in n-propanol, 288.15 K)?
Its solubility (mole fraction) is 0.0029.

And the solubility (mole fraction) (in n-propanol, 293.15 K)?
The solubility (mole fraction) was 0.0035.

And the solubility (mole fraction) (in n-propanol, 298.15 K)?
The solubility (mole fraction) was 0.00423.

What about the solubility (mole fraction) (in n-propanol, 303.15 K) of the same compound?
The solubility (mole fraction) was 0.00512.

And the solubility (mole fraction) (in n-propanol, 308.15 K)?
Its solubility (mole fraction) is 0.00616.

And the solubility (mole fraction) (in n-propanol, 313.15 K)?
The solubility (mole fraction) was 0.00738.

And the solubility (mole fraction) (in n-propanol, 318.15 K)?
Its solubility (mole fraction) is 0.00876.

What about the solubility (mole fraction) (in n-propanol, 323.15 K) of the same compound?
The solubility (mole fraction) was 0.0104.

And the solubility (mole fraction) (in water, 278.15 K)?
Its solubility (mole fraction) is 4e-06.

And the solubility (mole fraction) (in water, 283.15 K)?
Its solubility (mole fraction) is 6e-06.

And the solubility (mole fraction) (in water, 288.15 K)?
Its solubility (mole fraction) is 7e-06.

What about the solubility (mole fraction) (in water, 293.15 K) of the same compound?
The solubility (mole fraction) was 9e-06.

What about the solubility (mole fraction) (in water, 298.15 K) of the same compound?
The solubility (mole fraction) was 1.3e-05.

And the solubility (mole fraction) (in water, 303.15 K)?
Its solubility (mole fraction) is 1.7e-05.

And the solubility (mole fraction) (in water, 308.15 K)?
The solubility (mole fraction) was 2.4e-05.

What about the solubility (mole fraction) (in water, 313.15 K) of the same compound?
The solubility (mole fraction) was 3.2e-05.

And the solubility (mole fraction) (in water, 318.15 K)?
The solubility (mole fraction) was 4.2e-05.

What about the solubility (mole fraction) (in water, 323.15 K) of the same compound?
Its solubility (mole fraction) is 5.5e-05.
